We go through 4 compounds from US10920265B2, “Compounds and methods for detection of enzymes that remove methyl succinyl groups from epsilon-amino lysine moieties” (Enzo Life Sciences, Inc., priority 2011, dated 2021).

The subject of one assay is HDAC4. Description: HDAC activity with fluorogenic lysyl substrates. The settings on record: 50 μM substrate. In kind it is biochemical, human. How it is done: (§1) The Ac-Lys(Succ.)-AMC substrate was tested for activity with recombinant preparations of human HDACs 1-11, SIRTs 1-4, 6 and 7, a complex of HDAC3 with a fragment of the activating protein NCOR1 and with HeLa nuclear extract, a rich source of active HDACs in their native multiprotein complexes.
Enzyme and extract catalog products obtained from ENZO Life Sciences included: HDAC1 (Cat. # BML-SE456), HDAC2 (Cat. # BML-SE500), HDAC3 (Cat. # BML-SE507), HDAC3/NCOR1 Complex (Cat. # BML-SE515), HDAC6 (Cat. # BML-SE508), HDAC8 (Cat. # BML-SE145), HDAC10 (Cat. # BML-SE559), HDAC11 (Cat. # BML-SE560), SIRT1 (Cat. # BML-SE239), SIRT2 (Cat. # BML-SE251), SIRT3 (Cat. # BML-SE270), SIRT5 (Cat. # BML-SE555), HeLa Nuclear Extract (Cat. # BML-KI140), Trypsin (“Fluor de Lys Developer”, 80 mg/ml bovine trypsin in 1 mM HCl, Cat. # BML-KI105 or “Fluor de Lys Developer II”, 80 mg/ml bovine trypsin in 1 mM HCl, Cat. # BML-KI176). […] Enzymes obtained from BPS Bioscience, San Diego, Calif. included: human recombinants SIRT4 (Cat. #50015), SIRT6 (Cat. #50017), SIRT7 (Cat. #50018). […]

Another assay addresses T1, SIRT7 (Homo sapiens, UniProt Q9NRC8).
T1 construct: purchased BPS Bioscience 50018
T1 sequence (Q9NRC8 1-400): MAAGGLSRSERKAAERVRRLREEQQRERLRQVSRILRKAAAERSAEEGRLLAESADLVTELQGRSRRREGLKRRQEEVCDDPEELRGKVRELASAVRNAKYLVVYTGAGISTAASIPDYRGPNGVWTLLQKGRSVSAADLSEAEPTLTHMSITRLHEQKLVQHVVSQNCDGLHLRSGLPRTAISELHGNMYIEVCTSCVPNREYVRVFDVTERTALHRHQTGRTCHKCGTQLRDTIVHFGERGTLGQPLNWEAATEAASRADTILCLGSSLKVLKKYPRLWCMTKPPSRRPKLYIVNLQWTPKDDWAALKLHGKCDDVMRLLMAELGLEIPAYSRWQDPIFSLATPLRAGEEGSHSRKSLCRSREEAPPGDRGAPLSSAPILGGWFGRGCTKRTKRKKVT
Description: Sirtuin activity with fluorogenic lysyl substrates. It is filed as biochemical. The settings on record: 50 μM substrate, 500 μM NAD^+. How it is done: as §1
(§2) Enzyme and extract catalog products obtained from ENZO Life Sciences included: HDAC1 (Cat. # BML-SE456), HDAC2 (Cat. # BML-SE500), HDAC3 (Cat. # BML-SE507), HDAC3/NCOR1 Complex (Cat. # BML-SE515), HDAC6 (Cat. # BML-SE508), HDAC8 (Cat. # BML-SE145), HDAC10 (Cat. # BML-SE559), HDAC11 (Cat. # BML-SE560), SIRT1 (Cat. # BML-SE239), SIRT2 (Cat. # BML-SE251), SIRT3 (Cat. # BML-SE270), SIRT5 (Cat. # BML-SE555), HeLa Nuclear Extract (Cat. # BML-KI140), Trypsin (“Fluor de Lys Developer”, 80 mg/ml bovine trypsin in 1 mM HCl, Cat. # BML-KI105 or “Fluor de Lys Developer II”, 80 mg/ml bovine trypsin in 1 mM HCl, Cat. # BML-KI176). […] Enzymes obtained from BPS Bioscience, San Diego, Calif. included: human recombinants SIRT4 (Cat. #50015), SIRT6 (Cat. #50017), SIRT7 (Cat. #50018). HeLa whole cell extract was obtained from HeLa S3 cells (American Type Culture Collection) grown in a medium of MEM/10% fetal bovine serum (FBS) as follows: 1) 9×10^6 cells were suspended by trypsinization, followed by a phosphate buffered saline (PBS) rinse and addition of MEM/10% FBS (1.5 mL) to eliminate trypsin before transfer to a 15 mL conical tube; 2) cells were sedimented by a low speed centrifugation, gently resuspended in PBS and sedimented again and supernatant removed; 3) lysis was induced by resuspension in 0.8 mL 50 mM Tris/HCl, pH 8.0 with the non-denaturing detergent NP-40 (0.5%), placement on ice and brief vortexing every 5 min. for 30 min.; 4) 100 μl of a concentrated salt solution in the same buffer was added in order to bring the final buffer composition to 50 mM Tris/C1, pH 8.0, 137 mM NaCl, 2.7 mM KCl, 1 mM MgCl2, 0.5% NP-40; 5) particulate matter was cleared by centrifugation and the cleared lysate supernatant transferred to a 1.5 mL Eppendorf tube and stored on ice until use in activity assays.
(§3) Assays were performed at 37° C., according to the manufacturer's instructions for the “SIRT1 Fluorometric Drug Discovery Kit” from Enzo Life Sciences (ELS) (Cat. # BML-AK555), with exceptions described as follows. Where indicated in figures and text, SIRT1 enzyme was replaced with another enzyme or extract and the “Fluor de Lys-SIRT1 Substrate” (Ac-Arg-His-Lys-Lys(Ac)-AMC; ELS Cat. # BML-KI-177) was replaced with another acetylated, succinylated or trifluoroacetylated substrate.

The subject of a further assay is HeLa Nuclear Extract. Briefly: Activity of HeLa nuclear extract with fluorogenic lysyl substrates. In kind it is biochemical, human. The settings on record: 50 μM substrate. Here is the method: as §1, §2, §3
The next assay deals with HeLa cells. Description: Intact HeLa cell desuccinylation/deacetylation assay. It is filed as cell-based, human. The settings on record: 200 μM substrate in medium, four hours. Here is the method:
HeLa cells were cultured to 95% confluence in the wells of ½-volume 96-well plates. […] After the indicated time, cells were lysed with detergent and trypsin added to release AMC from desuccinylated or deacetylated substrate and then fluorescence read (Ex.360 nm/Em. 460 nm). For “0 hr.” samples, substrate, inhibitors, lysis buffer and trypsin were added simultaneously. Bars represent the mean of three determinations and the error bars the Standard Deviation from that mean. Statistically significant differences between the fluorescences of “4 hr.” and “0 hr.” samples (Student's t-test) are indicated by asterisks as follows: *,p<0.02; **, p<0.002.
An assay employing Ac-Lys(Ac.)-AMC to measure the HDAC and sirtuin deacetylase activity of intact cultured cells has been described (Howitz, K. T. et al. Nature 425, 191-196 (2003); Product Manual of Enzo Life Sciences Cat. # BML-AK-503, “HDAC Fluorimetric Cellular Activity Assay Kit”, Appendix F). Ac-Lys(Ac)-AMC is added to the culture medium, enters the cells and is deacetylated by HDACs and sirtuins in their native intracellular context. Measurement of the amount of Ac-Lys-AMC produced by intracellular deacetylation is then accomplished by detergent lysis of the cells and release of the AMC fluorophore by trypsin. We therefore investigated whether Ac-Lys(Succ.)-AMC could be used to measure intracellular desuccinylation activity, in a similar fashion, with cultured HeLa cells. […] These latter, deacetylation results are consistent with previous observations made with this assay system (see Howitz, K. T. et al. Nature 425, 191-196 (2003) and Appendix F).
Assays (FIG. 10) were performed according to the manufacturer's instructions for the ““HDAC Fluorometric Cellular Activity Assay Kit” (ELS Cat. # BML-AK503), with exceptions described as follows. Where indicated the “Fluor de Lys Substrate” (Ac-Lys(Ac.)-AMC; ELS Cat. # BML-KI104) was replaced with Ac-Lys(Succ.)-AMC (1).

For another assay, the target named is T2, HDAC6 (Homo sapiens, UniProt Q9UBN7).
T2 construct: purchased ENZO Life Sciences BML-SE508
T2 sequence (Q9UBN7 whole entry): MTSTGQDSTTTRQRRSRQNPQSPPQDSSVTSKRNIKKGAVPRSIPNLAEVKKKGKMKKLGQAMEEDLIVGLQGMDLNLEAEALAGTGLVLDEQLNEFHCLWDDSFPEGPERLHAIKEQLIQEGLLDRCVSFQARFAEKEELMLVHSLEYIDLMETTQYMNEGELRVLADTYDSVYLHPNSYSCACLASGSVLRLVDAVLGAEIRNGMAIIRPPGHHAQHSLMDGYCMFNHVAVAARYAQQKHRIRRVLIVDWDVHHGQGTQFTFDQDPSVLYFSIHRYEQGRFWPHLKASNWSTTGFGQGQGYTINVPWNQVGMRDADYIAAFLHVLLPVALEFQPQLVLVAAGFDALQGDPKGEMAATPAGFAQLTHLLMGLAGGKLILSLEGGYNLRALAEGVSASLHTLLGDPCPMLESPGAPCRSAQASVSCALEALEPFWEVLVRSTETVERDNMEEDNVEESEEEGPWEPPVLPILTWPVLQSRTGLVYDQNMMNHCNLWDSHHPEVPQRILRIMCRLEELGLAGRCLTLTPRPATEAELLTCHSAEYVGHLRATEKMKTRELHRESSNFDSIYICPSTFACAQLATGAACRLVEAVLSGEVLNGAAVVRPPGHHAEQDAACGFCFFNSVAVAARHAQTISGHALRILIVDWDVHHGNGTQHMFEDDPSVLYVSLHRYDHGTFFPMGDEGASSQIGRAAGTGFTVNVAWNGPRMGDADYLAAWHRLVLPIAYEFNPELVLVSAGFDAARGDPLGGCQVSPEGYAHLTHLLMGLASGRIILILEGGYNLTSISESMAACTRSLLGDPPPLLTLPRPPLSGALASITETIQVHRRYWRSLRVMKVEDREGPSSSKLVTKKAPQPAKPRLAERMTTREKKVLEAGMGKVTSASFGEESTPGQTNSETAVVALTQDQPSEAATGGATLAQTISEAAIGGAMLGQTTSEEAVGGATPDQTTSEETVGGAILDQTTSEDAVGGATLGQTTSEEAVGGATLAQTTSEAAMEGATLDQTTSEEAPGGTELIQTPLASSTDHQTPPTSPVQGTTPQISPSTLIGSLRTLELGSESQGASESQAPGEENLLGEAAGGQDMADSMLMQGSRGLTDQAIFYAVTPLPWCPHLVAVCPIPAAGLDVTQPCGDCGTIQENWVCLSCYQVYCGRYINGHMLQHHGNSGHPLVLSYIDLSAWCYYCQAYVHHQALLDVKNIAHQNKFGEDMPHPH
Briefly: HDAC activity with fluorogenic lysyl substrates. The settings on record: 50 μM substrate. It is filed as biochemical. An outline of the steps:
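Deacylase activity was measured at 37 °C by the SIRT1 fluorometric kit method. SIRT1 and its Ac-Arg-His-Lys-Lys(Ac)-AMC substrate were swapped for other human recombinant enzymes and other acylated lysyl-AMC substrates such as Ac-Lys(Succ.)-AMC.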

`CC(=O)N[C@@H](CCCCNC(=O)CCC(=O)O)C(=O)Nc1ccc2c(C)cc(=O)oc2c1` [Compound 1, N—(N^α-acetyl-L-Lysine(N^ε-succinyl))-AMC]: the “Activity (pmol/min/μg)” value with HDAC4, at SIRT7 and at HDAC6 was “Undetectable” throughout. The “Activity” value in the assay with HeLa Nuclear Extract stood at 0.012 pmol/min/µg. Further, the “Intracellular desuccinylation/deacetylation of substrate” value in the assay on HeLa cells was “no significant desuccinylation”.
In the case of `COC(=O)CCC(=O)NCCCC[C@H](NC(C)=O)C(=O)Nc1ccc2c(C)cc(=O)oc2c1` [Compound 5, N—(N^α-acetyl-L-Lysine(N^ε-methyl succinyl))-AMC], on SIRT7, the “Activity (pmol/min/μg)” value was “Undetectable”. Besides, the “Activity” value in the assay with HeLa Nuclear Extract came to 1.764 pmol/min/µg.
Take `CC(=O)NCCCCC(NC(C)=O)C(=O)Nc1ccc2c(C)cc(=O)oc2c1` (centres unmarked) [Ac-Lys(Ac.)-AMC, Ac-Lys(ε-acetyl)-AMC, reference compound]: the “Activity (pmol/min/μg)” value with HDAC4 and on SIRT7 was “Undetectable” each time. For the same compound, the results for the “Activity” value with HeLa Nuclear Extract and on HDAC6 were 31 pmol/min/µg and 1.0 pmol/min/µg, respectively. Further, in the assay on HeLa cells, the “Intracellular desuccinylation/deacetylation of substrate” value is listed as “significant deacetylation”.
On to `CCCCCCCCCCCCCC(=O)NCCCC[C@H](NC(C)=O)C(=O)Nc1ccc2c(C)cc(=O)oc2c1` [Compound 4, N—(N^α-acetyl-L-Lysine(N^ε-myristoyl))-AMC], for which the “Activity (pmol/min/μg)” value at SIRT7 is “Undetectable”. Also, the “Activity” value in the assay with HeLa Nuclear Extract worked out at 0.819 pmol/min/µg.
